Target: T1, α2C receptor (Homo sapiens, UniProt P18825)
T1 sequence (P18825 1-462): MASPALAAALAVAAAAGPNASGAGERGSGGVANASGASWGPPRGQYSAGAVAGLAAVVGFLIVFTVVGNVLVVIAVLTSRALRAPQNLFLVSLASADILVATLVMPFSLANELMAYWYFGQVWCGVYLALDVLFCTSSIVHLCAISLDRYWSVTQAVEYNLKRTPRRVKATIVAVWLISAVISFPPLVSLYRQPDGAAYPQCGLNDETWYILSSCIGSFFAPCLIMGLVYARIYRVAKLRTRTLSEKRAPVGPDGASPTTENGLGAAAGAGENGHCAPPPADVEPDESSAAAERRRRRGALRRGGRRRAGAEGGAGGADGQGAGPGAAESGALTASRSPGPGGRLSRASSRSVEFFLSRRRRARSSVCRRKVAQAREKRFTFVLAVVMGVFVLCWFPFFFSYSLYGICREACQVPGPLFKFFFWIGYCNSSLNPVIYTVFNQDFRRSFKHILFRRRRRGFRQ
Experiment: GTPγS assay, efficacy agonist activity (Emax) for α2C
Type: biochemical
Conditions: active agonist = efficacy at α2C ≧30% Emax; functionally selective = additionally efficacy at α2A ≦30% Emax (GTPγS assay)
Source text: For the purposes of this present invention, a compound is defined to be an active agonist of the α2C receptor subtype if the compound's efficacy at the α2C receptor is ≧30% Emax (GTPγS assay). A compound is a functionally selective agonist of the α2C receptor subtype over the α2A receptor subtype if the compound's efficacy at the α2C receptor is ≧30% Emax (GTPγS assay) and its efficacy at the α2A receptor is ≦30% Emax (GTPγS assay).
Efficacy agonist activity values (Emax, GTPγS assay) for α2C were determined by following the general procedure detailed by Umland et al (“Receptor reserve analysis of the human α2c-adrenoceptor using [^35S]GTPγS and cAMP functional assays” European Journal of Pharmacology 2001, 411, 211-221). For the purposes of the present invention, a compound is defined to be an active agonist of the α2C receptor subtype if the compound's efficacy at the α2C receptor is ≧30% Emax (GTPγS assay). A compound is a functionally selective agonist of the α2C receptor subtype over the α2A receptor subtype if the compound's efficacy at the α2C receptor is […] Emax (GTPγS assay) and its efficacy at the α2A receptor is ≦30% Emax (GTPγS assay).

Row | SMILES | Efficacy agonist activity (Emax, GTPγS assay) for α2C: evaluated as active or functionally selective agonist
1 | CCN(C(=O)OC)c1ccc2c(c1)N(Cc1c[nH]cn1)CCO2 [Compound 151] | active or functionally selective agonists of the α2C receptor subtype
2 | CCN(C(=O)NC)c1cc(Cl)c2c(c1)N(Cc1c[nH]cn1)CCO2 [Compound 236] | active or functionally selective agonists of the α2C receptor subtype
3 | CCCCOC(=O)N(CC)c1ccc2c(c1)N(Cc1c[nH]cn1)CCO2 [Compound 265] | active or functionally selective agonists of the α2C receptor subtype
4 | CCN(C(=O)OCc1cccnc1)c1ccc2c(c1)N(Cc1c[nH]cn1)CCO2 [Compound 275] | active or functionally selective agonists of the α2C receptor subtype
5 | O=C(NCCc1cccs1)Nc1ccc2c(c1)N(Cc1c[nH]cn1)CCO2 [Compound 297] | active or functionally selective agonists of the α2C receptor subtype
6 | CCN(C(=O)OCc1ccc(S(C)(=O)=O)cc1)c1ccc2c(c1)N(Cc1c[nH]cn1)CCO2 [Compound 65] | active or functionally selective agonists of the α2C receptor subtype
7 | CCN(C(=O)OCc1cc(C)n(C)n1)c1ccc2c(c1)N(Cc1c[nH]cn1)CCO2 [Compound 324] | active or functionally selective agonists of the α2C receptor subtype
8 | CCN(C(=O)OCCOC)c1ccc2c(c1)N(Cc1c[nH]cn1)CCO2 [Compound 160] | active or functionally selective agonists of the α2C receptor subtype
9 | CCN(C(=O)OCc1cn2ccccc2n1)c1ccc2c(c1)N(Cc1c[nH]cn1)CCO2 [Compound 290] | active or functionally selective agonists of the α2C receptor subtype
10 | CNC(=O)N(c1ccc2c(c1)N(Cc1c[nH]cn1)CCO2)C(C)C [Compound 46] | active or functionally selective agonists of the α2C receptor subtype
11 | COC(=O)Cc1ccc2c(c1)N(Cc1c[nH]cn1)CCO2 [Compound 114] | active or functionally selective agonists of the α2C receptor subtype
12 | CCN(C(=O)OC)c1cc(F)c2c(c1)N(Cc1c[nH]cn1)CCO2 [Compound 178] | active or functionally selective agonists of the α2C receptor subtype
13 | O=C(Nc1ccc2c(c1)N(Cc1c[nH]cn1)CCO2)OCc1ccc2sccc2c1 [Compound 316] | active or functionally selective agonists of the α2C receptor subtype
14 | CC(=O)N1CCN(Cc2c[nH]cn2)c2ccccc21 [Compound 27E] | active or functionally selective agonists of the α2C receptor subtype
15 | N#Cc1cc(F)c2c(c1)N(Cc1c[nH]cn1)CCO2 [Compound 125] | active or functionally selective agonists of the α2C receptor subtype
16 | CONC(=O)N(C)c1cc(Cl)c2c(c1)N(Cc1c[nH]cn1)CCO2 [Compound 235] | active or functionally selective agonists of the α2C receptor subtype
17 | COC(=O)Nc1cc(F)c2c(c1)N(Cc1c[nH]cn1)CCO2 [Compound 19] | active or functionally selective agonists of the α2C receptor subtype

Row | SMILES | Efficacy agonist activity (Emax, GTPγS assay) for α2C: evaluated as active or functionally selective agonist
18 | CCN(C(=O)OCCSC)c1ccc2c(c1)N(Cc1c[nH]cn1)CCO2 [Compound 319] | active or functionally selective agonists of the α2C receptor subtype
19 | N#Cc1ccc(COC(=O)Nc2ccc3c(c2)N(Cc2c[nH]cn2)CCO3)cc1 [Compound 248] | active or functionally selective agonists of the α2C receptor subtype
20 | CNC(=O)N(C)c1ccc2c(c1)N(C(C#N)c1c[nH]cn1)CCO2 (stereo not shown) [Compound 168] | active or functionally selective agonists of the α2C receptor subtype
21 | N#Cc1cc(Cl)c2c(c1)N(Cc1c[nH]cn1)CCO2 [Compound 253] | active or functionally selective agonists of the α2C receptor subtype
22 | CCCOC(=O)N(CC)c1ccc2c(c1)N(Cc1c[nH]cn1)CCO2 [Compound 264] | active or functionally selective agonists of the α2C receptor subtype
23 | CNC(=O)N(C)c1ccc2c(c1)N(Cc1c[nH]cn1)CCO2 [Compound 6] | active or functionally selective agonists of the α2C receptor subtype
24 | CN(c1ccc2c(c1)N(Cc1c[nH]cn1)CCO2)c1ccccn1 [Compound 332] | active or functionally selective agonists of the α2C receptor subtype
25 | CCN(C(C)=O)c1ccc2c(c1)N(Cc1c[nH]cn1)CCO2 [Compound 158] | active or functionally selective agonists of the α2C receptor subtype
26 | CCN(C(=O)NCc1ccccc1)c1ccc2c(c1)N(Cc1c[nH]cn1)CCO2 [Compound 280] | active or functionally selective agonists of the α2C receptor subtype
27 | CN(C(=O)CCCOc1ccccc1)c1ccc2c(c1)N(Cc1c[nH]cn1)CCO2 [Compound 259] | active or functionally selective agonists of the α2C receptor subtype
28 | CCN(c1ccc2c(c1)N(Cc1c[nH]cn1)CCO2)c1ncc([N+](=O)[O-])s1 [Compound 331] | active or functionally selective agonists of the α2C receptor subtype
29 | CNC(=O)N(C)c1ccc2c(c1)N(Cc1c[nH]cn1)CCS2 [Compound 144] | active or functionally selective agonists of the α2C receptor subtype
30 | COC(=O)Nc1cc(C)c2c(c1)N(Cc1c[nH]cn1)CCO2 [Compound 130] | active or functionally selective agonists of the α2C receptor subtype
31 | O=C(Nc1ccc2c(c1)N(Cc1c[nH]cn1)CCO2)OCc1ccc(F)cc1 [Compound 305] | active or functionally selective agonists of the α2C receptor subtype
32 | CCN(c1ccc2c(c1)N(Cc1c[nH]cn1)CCO2)S(=O)(=O)CCN1C(=O)c2ccccc2C1=O [Compound 335] | active or functionally selective agonists of the α2C receptor subtype
33 | CS(=O)(=O)c1ccc(COC(=O)Nc2ccc3c(c2)N(Cc2c[nH]cn2)CCO3)cc1 [Compound 309] | active or functionally selective agonists of the α2C receptor subtype
34 | CCCN(C(=O)NC)c1ccc2c(c1)N(Cc1c[nH]cn1)CCO2 [Compound 238] | active or functionally selective agonists of the α2C receptor subtype

Source: US7700592B2, “α2C adrenoreceptor agonists” (Schering Corporation, priority 2005, dated 2010)
